Measured values from patent US20070154543A1, “Solid preparation for oral use” (KYORIN PHARMACEUTICAL CO., LTD, priority 2003, published 2007).

Experiment: Pharmacokinetics of KRP-101 in plasma after oral or intravenous administration
Type: in vivo
Settings: male Beagle dog, intravenous, 0.5 mg/kg
Experimental: To a male Beagle dog, one tablet of the film-coated tablets obtained in Example 1 was administered orally or 0.5 mg/kg of KRP-101 were administered intravenously, and the concentration of KRP-101in plasma was measured until 24 hours after administration.

AUC (Total area under concentration-time curve): 1354 ng·h/mL
half-life (plasma, read-out: T½ (Elimination half-life) (converted)): 2.2 h
Structure (SMILES): CC[C@@H](Cc1ccc(OC)c(C(=O)NCc2ccc(Oc3ccc(F)cc3)cc2)c1)C(=O)O [KRP-101, (S)-2-[3-[N-[4-(4-fluorophenoxy)benzyl]carbamoyl]-4-methoxybenzyl]butanoic acid]
